Laboratory results from patent publication US10870647B2, “Imidazopyridine derivative, method for preparing same, and pharmaceutical composition containing same as active ingredient for preventing or treating cancer” (DAEGU-GYEONGBUK MEDICAL INNOVATION FOUNDATION, priority 2016, dated 2020).

Key:
Assay in all cases: Kinase selectivity, scanMAX Kinase assay panel (DiscoverX), % control at 1 uM
Assay type in all cases: binding
[1] = target: T1, scanMAX Kinase assay panel (Homo sapiens, UniProt Q15569); conditions: TESK1; 1 uM; read-out: Percent Control (%)
T1 construct: purchased DiscoverX
How it was run: (§1)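 Binding across the scanMAX kinase panel was tested at 1 uM compound. % control = (compound − positive control)/(negative control − positive control) × 100; below 35 counted as active.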

[2] = target: T2, scanMAX Kinase assay panel (Homo sapiens, UniProt Q13554); conditions: CAMK2B; 1 uM; read-out: Percent Control (%)
T2 construct: purchased DiscoverX
T2 sequence (Q13554 whole entry): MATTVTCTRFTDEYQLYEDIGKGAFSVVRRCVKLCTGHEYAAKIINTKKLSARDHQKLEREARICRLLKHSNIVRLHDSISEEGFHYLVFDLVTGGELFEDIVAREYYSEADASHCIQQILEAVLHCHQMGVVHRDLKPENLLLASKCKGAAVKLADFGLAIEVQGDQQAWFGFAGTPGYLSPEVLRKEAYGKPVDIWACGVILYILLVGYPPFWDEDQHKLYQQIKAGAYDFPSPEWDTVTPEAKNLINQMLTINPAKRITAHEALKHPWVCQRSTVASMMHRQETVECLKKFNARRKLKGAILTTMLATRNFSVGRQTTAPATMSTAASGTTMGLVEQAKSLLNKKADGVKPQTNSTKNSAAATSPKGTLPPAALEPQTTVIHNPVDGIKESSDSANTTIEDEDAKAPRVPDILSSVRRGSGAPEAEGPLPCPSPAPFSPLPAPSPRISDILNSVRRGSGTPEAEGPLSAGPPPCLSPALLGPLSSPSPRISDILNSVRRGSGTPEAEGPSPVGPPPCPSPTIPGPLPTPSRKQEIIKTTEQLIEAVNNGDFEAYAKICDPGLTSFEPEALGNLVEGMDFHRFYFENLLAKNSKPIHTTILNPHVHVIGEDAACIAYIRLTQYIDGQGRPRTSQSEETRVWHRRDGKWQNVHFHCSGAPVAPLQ
How it was run: as §1

[3] = target: T3, scanMAX Kinase assay panel (Homo sapiens, UniProt Q9Y6M4); conditions: CSNK1G3; 1 uM; read-out: Percent Control (%)
T3 construct: purchased DiscoverX
T3 sequence (Q9Y6M4 whole entry): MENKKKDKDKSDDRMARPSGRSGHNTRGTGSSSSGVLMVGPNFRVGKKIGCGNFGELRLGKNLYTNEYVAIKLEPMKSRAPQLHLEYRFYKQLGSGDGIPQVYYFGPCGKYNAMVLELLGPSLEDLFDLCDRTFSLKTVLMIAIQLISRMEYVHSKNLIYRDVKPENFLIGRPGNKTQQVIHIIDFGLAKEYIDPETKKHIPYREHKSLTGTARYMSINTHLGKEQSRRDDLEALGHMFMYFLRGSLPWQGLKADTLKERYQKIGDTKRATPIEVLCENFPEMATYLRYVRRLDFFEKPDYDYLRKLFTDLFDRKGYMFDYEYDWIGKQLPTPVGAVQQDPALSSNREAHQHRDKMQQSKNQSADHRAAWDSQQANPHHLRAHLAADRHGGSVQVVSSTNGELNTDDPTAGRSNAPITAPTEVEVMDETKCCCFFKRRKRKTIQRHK
How it was run: as §1

[4] = target: T4, scanMAX Kinase assay panel (Homo sapiens, UniProt Q5S007, G2019S); conditions: LRRK2 (G2019S); 1 uM; read-out: Percent Control (%)
T4 construct: purchased DiscoverX
T4 sequence (Q5S007 whole entry G2019S): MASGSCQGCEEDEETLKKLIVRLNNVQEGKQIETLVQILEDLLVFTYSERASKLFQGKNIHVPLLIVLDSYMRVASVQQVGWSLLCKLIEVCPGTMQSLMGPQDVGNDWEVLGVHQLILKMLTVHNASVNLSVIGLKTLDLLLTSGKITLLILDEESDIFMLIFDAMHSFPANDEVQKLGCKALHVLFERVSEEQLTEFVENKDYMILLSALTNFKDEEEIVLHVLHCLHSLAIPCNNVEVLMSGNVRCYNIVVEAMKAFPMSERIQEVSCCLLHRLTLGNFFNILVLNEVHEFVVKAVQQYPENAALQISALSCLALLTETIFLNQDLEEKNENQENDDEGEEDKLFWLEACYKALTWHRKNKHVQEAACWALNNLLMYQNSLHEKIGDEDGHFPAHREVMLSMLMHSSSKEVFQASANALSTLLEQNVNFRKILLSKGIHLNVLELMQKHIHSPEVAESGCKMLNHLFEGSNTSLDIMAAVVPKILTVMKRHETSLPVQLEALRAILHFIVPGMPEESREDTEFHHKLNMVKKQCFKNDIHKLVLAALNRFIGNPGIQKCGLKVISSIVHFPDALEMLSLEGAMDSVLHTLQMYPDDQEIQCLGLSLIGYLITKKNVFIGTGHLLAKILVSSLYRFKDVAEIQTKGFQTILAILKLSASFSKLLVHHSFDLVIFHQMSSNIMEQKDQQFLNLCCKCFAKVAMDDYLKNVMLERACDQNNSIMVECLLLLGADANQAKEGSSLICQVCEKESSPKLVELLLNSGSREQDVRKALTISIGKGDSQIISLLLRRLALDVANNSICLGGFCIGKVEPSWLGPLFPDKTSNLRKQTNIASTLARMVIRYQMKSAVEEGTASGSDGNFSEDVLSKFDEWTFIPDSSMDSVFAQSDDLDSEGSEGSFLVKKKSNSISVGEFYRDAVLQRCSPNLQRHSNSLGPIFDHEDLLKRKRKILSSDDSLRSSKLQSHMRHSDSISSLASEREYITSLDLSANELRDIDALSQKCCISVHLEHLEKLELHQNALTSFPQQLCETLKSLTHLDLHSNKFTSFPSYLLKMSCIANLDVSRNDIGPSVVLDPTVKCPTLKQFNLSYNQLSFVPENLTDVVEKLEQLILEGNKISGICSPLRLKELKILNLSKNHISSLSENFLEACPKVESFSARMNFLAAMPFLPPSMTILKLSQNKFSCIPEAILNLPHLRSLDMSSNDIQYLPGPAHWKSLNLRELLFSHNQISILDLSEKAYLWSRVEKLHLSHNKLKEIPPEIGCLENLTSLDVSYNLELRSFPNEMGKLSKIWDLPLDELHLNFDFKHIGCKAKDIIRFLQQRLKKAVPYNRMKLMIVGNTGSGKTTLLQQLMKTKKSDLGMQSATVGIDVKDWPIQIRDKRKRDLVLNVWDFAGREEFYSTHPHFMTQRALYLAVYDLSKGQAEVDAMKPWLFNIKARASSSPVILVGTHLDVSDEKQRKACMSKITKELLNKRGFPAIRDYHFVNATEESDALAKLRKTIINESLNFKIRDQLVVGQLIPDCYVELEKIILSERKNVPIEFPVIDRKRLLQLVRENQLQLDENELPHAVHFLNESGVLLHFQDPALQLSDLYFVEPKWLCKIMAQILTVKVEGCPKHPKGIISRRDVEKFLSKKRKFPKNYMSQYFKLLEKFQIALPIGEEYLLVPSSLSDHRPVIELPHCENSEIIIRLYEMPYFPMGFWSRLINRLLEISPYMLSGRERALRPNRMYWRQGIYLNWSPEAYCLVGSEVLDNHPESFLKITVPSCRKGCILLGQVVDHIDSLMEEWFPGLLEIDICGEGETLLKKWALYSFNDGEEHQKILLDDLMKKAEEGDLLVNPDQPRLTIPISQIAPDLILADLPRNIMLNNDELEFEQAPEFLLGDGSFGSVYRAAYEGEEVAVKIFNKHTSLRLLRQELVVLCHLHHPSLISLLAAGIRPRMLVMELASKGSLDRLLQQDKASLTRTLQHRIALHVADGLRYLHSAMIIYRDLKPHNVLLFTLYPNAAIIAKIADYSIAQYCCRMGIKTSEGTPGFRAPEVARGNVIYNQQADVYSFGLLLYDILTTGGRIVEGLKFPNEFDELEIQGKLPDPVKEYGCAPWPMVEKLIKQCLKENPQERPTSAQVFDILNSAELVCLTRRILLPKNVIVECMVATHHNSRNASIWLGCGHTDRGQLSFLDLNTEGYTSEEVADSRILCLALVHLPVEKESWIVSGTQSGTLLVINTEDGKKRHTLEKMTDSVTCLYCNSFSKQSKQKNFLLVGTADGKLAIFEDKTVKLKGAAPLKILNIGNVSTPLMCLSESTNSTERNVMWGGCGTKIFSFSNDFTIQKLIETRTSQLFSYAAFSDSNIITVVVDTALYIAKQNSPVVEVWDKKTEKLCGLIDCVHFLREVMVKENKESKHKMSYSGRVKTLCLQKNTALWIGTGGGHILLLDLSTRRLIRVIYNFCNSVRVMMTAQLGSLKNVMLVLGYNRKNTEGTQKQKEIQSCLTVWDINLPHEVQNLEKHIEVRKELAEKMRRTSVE
How it was run: as §1

[5] = target: T5, scanMAX Kinase assay panel (Homo sapiens, UniProt P53667); conditions: LIMK1; 1 uM; read-out: Percent Control (%)
T5 construct: purchased DiscoverX
T5 sequence (P53667 whole entry): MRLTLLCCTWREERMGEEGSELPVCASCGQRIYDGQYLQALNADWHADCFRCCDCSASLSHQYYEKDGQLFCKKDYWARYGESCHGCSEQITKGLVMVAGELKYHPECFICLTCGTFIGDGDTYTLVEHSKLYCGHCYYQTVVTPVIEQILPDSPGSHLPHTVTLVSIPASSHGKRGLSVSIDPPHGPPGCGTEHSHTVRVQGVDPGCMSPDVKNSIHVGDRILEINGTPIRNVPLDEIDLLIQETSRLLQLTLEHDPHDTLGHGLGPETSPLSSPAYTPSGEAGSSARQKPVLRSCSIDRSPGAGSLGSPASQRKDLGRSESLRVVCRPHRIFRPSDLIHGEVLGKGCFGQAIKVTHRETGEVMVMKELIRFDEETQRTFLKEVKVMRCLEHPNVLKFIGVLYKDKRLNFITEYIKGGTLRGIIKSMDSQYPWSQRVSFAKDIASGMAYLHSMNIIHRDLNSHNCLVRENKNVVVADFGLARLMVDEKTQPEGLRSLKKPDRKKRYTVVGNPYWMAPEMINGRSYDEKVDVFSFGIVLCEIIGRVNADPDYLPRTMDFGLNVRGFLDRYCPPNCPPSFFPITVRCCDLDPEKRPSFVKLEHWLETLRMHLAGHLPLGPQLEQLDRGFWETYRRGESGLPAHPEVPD
How it was run: as §1

[6] = target: T6, scanMAX Kinase assay panel (Homo sapiens, UniProt P51955); conditions: NEK2; 1 uM; read-out: Percent Control (%)
T6 construct: purchased DiscoverX
T6 sequence (P51955 1-445): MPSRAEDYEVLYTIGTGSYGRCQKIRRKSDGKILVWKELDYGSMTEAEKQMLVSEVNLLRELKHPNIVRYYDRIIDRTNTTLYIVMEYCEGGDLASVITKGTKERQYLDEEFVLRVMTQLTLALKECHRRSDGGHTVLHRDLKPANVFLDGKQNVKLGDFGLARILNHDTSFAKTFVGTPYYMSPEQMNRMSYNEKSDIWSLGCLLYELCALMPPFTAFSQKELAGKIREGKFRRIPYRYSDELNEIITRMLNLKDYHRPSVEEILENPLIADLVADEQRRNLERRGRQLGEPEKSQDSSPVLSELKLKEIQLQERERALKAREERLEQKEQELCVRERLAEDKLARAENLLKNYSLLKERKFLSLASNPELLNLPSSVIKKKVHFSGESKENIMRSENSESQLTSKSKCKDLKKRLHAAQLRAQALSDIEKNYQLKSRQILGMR
How it was run: as §1

[7] = target: T7, scanMAX Kinase assay panel (Homo sapiens, UniProt Q9NRM7); conditions: LATS2; 1 uM; read-out: Percent Control (%)
T7 construct: purchased DiscoverX
T7 sequence (Q9NRM7 1-1088): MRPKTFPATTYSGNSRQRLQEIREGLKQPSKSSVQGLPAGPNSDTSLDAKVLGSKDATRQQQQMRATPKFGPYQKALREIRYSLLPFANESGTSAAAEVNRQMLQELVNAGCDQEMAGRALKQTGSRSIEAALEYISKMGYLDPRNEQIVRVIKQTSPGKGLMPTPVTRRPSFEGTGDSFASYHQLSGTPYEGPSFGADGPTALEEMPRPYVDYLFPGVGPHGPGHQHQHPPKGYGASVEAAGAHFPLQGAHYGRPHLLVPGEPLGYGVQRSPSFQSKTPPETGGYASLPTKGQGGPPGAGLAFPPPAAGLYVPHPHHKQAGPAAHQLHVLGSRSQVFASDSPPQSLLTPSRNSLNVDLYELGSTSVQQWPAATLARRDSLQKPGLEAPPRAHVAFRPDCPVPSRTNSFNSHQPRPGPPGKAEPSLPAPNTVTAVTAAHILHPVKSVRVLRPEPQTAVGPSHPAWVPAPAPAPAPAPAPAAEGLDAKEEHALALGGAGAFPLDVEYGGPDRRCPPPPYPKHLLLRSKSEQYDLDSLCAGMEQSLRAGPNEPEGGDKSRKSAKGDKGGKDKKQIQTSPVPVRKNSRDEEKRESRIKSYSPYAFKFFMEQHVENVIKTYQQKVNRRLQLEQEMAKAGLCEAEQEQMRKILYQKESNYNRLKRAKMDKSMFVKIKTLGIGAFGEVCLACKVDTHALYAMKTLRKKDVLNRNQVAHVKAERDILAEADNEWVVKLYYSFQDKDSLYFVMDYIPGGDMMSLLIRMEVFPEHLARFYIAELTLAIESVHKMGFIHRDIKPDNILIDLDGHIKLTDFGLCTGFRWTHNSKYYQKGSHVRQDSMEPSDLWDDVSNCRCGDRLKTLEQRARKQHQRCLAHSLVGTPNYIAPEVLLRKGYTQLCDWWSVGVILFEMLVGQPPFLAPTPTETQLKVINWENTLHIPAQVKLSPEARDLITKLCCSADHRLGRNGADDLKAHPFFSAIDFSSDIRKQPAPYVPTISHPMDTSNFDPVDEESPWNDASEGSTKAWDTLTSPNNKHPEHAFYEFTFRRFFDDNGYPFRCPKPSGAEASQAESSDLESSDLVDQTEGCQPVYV
How it was run: as §1

[8] = target: T8, scanMAX Kinase assay panel (Homo sapiens, UniProt Q8TD08); conditions: ERK8; 1 uM; read-out: Percent Control (%)
T8 construct: purchased DiscoverX
T8 sequence (Q8TD08 1-544): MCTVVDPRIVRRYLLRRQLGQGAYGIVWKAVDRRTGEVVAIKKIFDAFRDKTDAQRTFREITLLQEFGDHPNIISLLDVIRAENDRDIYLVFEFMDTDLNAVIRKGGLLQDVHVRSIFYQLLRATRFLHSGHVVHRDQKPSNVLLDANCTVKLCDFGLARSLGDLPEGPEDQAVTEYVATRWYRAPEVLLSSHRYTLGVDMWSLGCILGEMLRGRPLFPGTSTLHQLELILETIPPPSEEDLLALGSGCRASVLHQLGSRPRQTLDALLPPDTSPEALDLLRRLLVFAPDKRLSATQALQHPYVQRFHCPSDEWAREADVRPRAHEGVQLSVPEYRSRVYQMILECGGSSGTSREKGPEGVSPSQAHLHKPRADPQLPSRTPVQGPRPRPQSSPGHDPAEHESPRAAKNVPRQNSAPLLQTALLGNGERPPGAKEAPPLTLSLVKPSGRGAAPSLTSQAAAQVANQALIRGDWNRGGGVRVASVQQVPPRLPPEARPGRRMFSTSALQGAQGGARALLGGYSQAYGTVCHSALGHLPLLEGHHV
How it was run: as §1

[9] = target: T9, scanMAX Kinase assay panel (Homo sapiens, UniProt Q00526); conditions: CDK3; 1 uM; read-out: Percent Control (%)
T9 construct: purchased DiscoverX
T9 sequence (Q00526 whole entry): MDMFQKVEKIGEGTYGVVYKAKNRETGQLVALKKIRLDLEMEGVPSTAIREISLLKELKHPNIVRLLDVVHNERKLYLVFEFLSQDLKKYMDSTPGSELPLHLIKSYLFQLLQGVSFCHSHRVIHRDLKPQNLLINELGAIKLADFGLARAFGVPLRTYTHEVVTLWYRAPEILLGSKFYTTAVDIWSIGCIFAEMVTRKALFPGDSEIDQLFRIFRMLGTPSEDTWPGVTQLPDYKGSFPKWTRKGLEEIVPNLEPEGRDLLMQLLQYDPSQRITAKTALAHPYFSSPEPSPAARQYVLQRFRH
How it was run: as §1

SMILES | remaining binding at 1 µM [1] | remaining binding at 1 µM [2] | remaining binding at 1 µM [3] | remaining binding at 1 µM [4] | remaining binding at 1 µM [5] | remaining binding at 1 µM [6] | remaining binding at 1 µM [7] | remaining binding at 1 µM [8] | remaining binding at 1 µM [9]
Cc1ccc(C(=O)Nc2ccc(CN3CCN(C)CC3)c(C(F)(F)F)c2)cc1C#Cc1cnc2c(Nc3cnn(C)c3)cccn12 [Example 1, 4-methyl-3-((8-((1-methyl-1H-pyrazol-4-yl)amino)imidazo[1,2-a]pyridin-3-yl)ethynyl)-N-(4-((4-methylpiperazin-1-yl)methyl)-3-(trifluoromethyl)phenyl)benzamide] | 26% | 76% | 100% | 27% | 4% | 80% | 67% | 29% | 62%
Cc1cn(-c2cc(NC(=O)c3ccc(C)c(C#Cc4cnc5c(Nc6cnn(C)c6)cccn45)c3)cc(C(F)(F)F)c2)cn1 [Example 12, 4-methyl-N-(3-(4-methyl-1H-imidazol-1-yl)-5-(trifluoromethyl)phenyl)-3-((8-((1-methyl-1H-pyrazol-4-yl)amino)imidazo[1,2-a]pyridin-3-yl)ethynyl)benzamide] | 81% | 96% | 84% | 100% | 38% | 100% | 98% | 71% | 89%
Cc1ccc(NC(=O)C2(C(=O)Nc3ccc(F)cc3)CC2)cc1C#Cc1cnc2c(Nc3cnn(C(C)C)c3)cccn12 [Example 78] | 100% | 100% | 100% | 100% | 100% | 100% | 100% | 87% | 86%
